Data reported in patent publication US11435363B2, “Relevance of achieved levels of markers of systemic inflammation following treatment” (The Brigham and Women's Hospital, Inc., priority 2004, dated 2022).

Key:
LDLC = assay: PROVE IT-TIMI 22: LDLC levels on statin therapy; format: in vivo, human; settings: for proportion of allocated patients who achieved an LDLC goal of <70 mg/dL: day 30, atorvastatin 80 mg or pravastatin 40 mg, P<0.001
Text: (§1) In total, 4,162 patients who had been hospitalized within the preceding 10 days for acute coronary syndrome and provided written informed consent were enrolled at 349 sites in eight countries. Approximately two-thirds had acute myocardial infarction and the remainder had high-risk unstable angina.
(§2) For this analysis, we defined achieved LDLC and achieved CRP levels as those values obtained at the 30 day follow-up, a period of time adequate for the effect of statin therapy to be seen for both LDLC and CRP and a time when any residual effects of ischemia on each parameter would no longer be evident. Of the total cohort, 3,745 participants (90.0 percent) were alive and free of a recurrent event at day 30 and underwent evaluation for both LDLC and CRP at that time. All laboratory measurements were made in core facilities and a validated assay for high sensitivity CRP used (Denka Seiken).
Spearman correlation coefficients were used to evaluate the relationship between achieved LDLC and achieved CRP. We then used a multi-stage process to address the impact of achieved LDLC and achieved CRP levels on rates of recurrent myocardial infarction or fatal coronary events that occurred after day 30 in the study. First, we divided the study population into increasing quartiles of achieved LDLC and achieved CRP and sought evidence that these levels were associated with increased risk of recurrent myocardial infarction or coronary death, both in age-adjusted analyses and after further adjustment for gender, smoking status (current/non-smoker), diabetes, body mass index (kg/m^2), and history of hypertension. […] To address the relative impact of achieved CRP across LDLC strata, we repeated this process after dividing the study cohort into four groups on the basis of achieved LDLC levels and achieved CRP levels above or below the respective values of 70 mg/dL and 2.0 mg/L. A test for trend across groups was performed assigning a score of 0 to those with low levels of both, a score of 1 to the two intermediate groups, and a score of 2 to those with high levels of both. […]

[1] = tested on: acute coronary syndrome patients; assay: PROVE IT-TIMI 22: recurrent myocardial infarction or coronary death after day 30; format: in vivo, human; settings: for recurrent event rate, achieved LDLC <70 mg/dL and achieved CRP greater than 2.0 mg/L / recurrent event rate, achieved LDLC <70 mg/dL and achieved CRP less than 2.0 mg/L: recurrent myocardial infarction or coronary death, P for difference between agents=0.7
Text: as §1, §2
(§3) Spearman correlation coefficients were used to evaluate the relationship between achieved LDLC and achieved CRP. We then used a multi-stage process to address the impact of achieved LDLC and achieved CRP levels on rates of recurrent myocardial infarction or fatal coronary events that occurred after day 30 in the study. First, we divided the study population into increasing quartiles of achieved LDLC and achieved CRP and sought evidence that these levels were associated with increased risk of recurrent myocardial infarction or coronary death, both in age-adjusted analyses and after further adjustment for gender, smoking status (current/non-smoker), diabetes, body mass index (kg/m^2), and history of hypertension. […] To address the relative impact of achieved CRP across LDLC strata, we repeated this process after dividing the study cohort into four groups on the basis of achieved LDLC levels and achieved CRP levels above or below the respective values of 70 mg/dL and 2.0 mg/L. A test for trend across groups was performed assigning a score of 0 to those with low levels of both, a score of 1 to the two intermediate groups, and a score of 2 to those with high levels of both. Similar analyses were performed after stratification of the study group according to atorvastatin or pravastatin allocation. Estimates of hazard ratios were obtained using Cox proportional-hazards models.

CRP = settings: for median CRP level at day 30 / median CRP level at end of study: atorvastatin 80 mg/day or pravastatin 40 mg/day orally; for median CRP level at day 30 / median CRP level at end of study / proportion of treated patients who achieved CRP levels below 2.0 at day 30: P<0.001; for median CRP level at end of study: end of study (mean 24 months); for proportion of treated patients who achieved CRP levels below 2.0 at day 30: atorvastatin 80 mg or pravastatin 40 mg
Text: as §1, §2, §3

[2] = tested on: acute coronary syndrome patients; settings: overall trial result, reference (7); cited from earlier work

Row | SMILES | LDLC levels compared with the pravastatin group (LDLC; day 30, 4 months and end of study, identical at randomization) | proportion of allocated patients who achieved an LDLC goal of <70 mg/dL (LDLC) [%] | fully adjusted hazard ratio for atorvastatin vs pravastatin, clinical outcomes ([1]; after accounting for achieved LDLC and achieved CRP, 95% CI 0.75 to 1.34, P=0.9) | recurrent event rate, achieved LDLC <70 mg/dL and achieved CRP greater than 2.0 mg/L [1] [per 100 person-years] | recurrent event rate, achieved LDLC <70 mg/dL and achieved CRP less than 2.0 mg/L [1] [per 100 person-years] | median CRP level at day 30 (CRP) [mg/L] | median CRP level at end of study (CRP) [mg/1] | proportion of treated patients who achieved CRP levels below 2.0 at day 30 (CRP) [%] | overall clinical outcome in the PROVE IT-TIMI 22 trial [2] | effect on CRP levels (CRP; gatifloxicin versus placebo allocation in this population)
1 | CC(C)c1c(C(=O)Nc2ccccc2)c(-c2ccccc2)c(-c2ccc(F)cc2)n1CC[C@@H](O)C[C@@H](O)CC(=O)O [atorvastatin] | significantly lower | 72.3 | 1.00 | 3.1 | 2.3 | 1.6 | 1.3 | 57.5 | superior to pravastatin overall | 
2 | COc1c(N2CCNC(C)C2)c(F)cc2c(=O)c(C(=O)O)cn(C3CC3)c12 (stereo not shown) [gatifloxicin] |  |  |  |  |  |  |  |  |  | no significant effect on CRP levels
3 | CC[C@H](C)C(=O)O[C@H]1C[C@H](O)C=C2C=C[C@H](C)[C@H](CC[C@@H](O)C[C@@H](O)CC(=O)O)[C@H]21 [pravastatin] |  | 21.7 |  | 3.4 | 2.5 | 2.3 | 2.1 | 44.9 |  | 
